Our source for the DC50 values is patent US12161722B2, “Bifunctional heterocyclic compound having BTK degradation function via ubiquitin proteasome pathway, and use thereof” (KOREA RESEARCH INSTITUTE OF CHEMICAL TECHNOLOGY, priority 2021, dated 2024).

SMILES strings stand for the structures.

Usually DC50 stands for the concentration at which degradation of the target reaches its halfway point.

In the experiment the target is T1, WT BTK protein (Homo sapiens, UniProt Q06187).
T1 construct: measured for intracellular BTK protein levels by Western blotting; endogenous in cells; host or cells: TMD-8 or RAMOS cells
T1 sequence (Q06187 whole entry): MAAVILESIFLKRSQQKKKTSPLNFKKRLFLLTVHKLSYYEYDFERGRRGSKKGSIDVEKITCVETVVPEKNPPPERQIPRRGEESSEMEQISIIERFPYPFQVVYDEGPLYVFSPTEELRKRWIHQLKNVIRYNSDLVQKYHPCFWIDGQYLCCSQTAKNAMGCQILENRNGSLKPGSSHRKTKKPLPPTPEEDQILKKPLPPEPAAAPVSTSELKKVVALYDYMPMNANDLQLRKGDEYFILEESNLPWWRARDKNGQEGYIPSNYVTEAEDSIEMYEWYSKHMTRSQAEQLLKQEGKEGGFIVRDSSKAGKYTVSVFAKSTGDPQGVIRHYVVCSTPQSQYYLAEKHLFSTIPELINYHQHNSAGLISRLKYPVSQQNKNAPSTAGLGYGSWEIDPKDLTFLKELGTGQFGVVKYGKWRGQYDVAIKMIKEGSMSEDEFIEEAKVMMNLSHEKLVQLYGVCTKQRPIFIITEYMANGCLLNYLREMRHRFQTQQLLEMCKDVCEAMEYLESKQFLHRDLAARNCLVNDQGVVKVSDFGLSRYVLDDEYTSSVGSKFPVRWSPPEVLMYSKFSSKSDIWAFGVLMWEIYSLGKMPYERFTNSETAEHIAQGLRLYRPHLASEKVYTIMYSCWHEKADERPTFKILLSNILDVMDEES
Kind of experiment: BTK protein degradation assay (Western blotting), WT BTK. The experiment is classed as cell-based. As to conditions: concentration range accounting for 50% degradation of WT BTK protein, TMD-8 or RAMOS cells, 24 hours. The gist of the method:
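TMD-8 cells (1×10^6 cells/mL) treated 24 h with compound serial dilutions, then lysed in RIPA. Equal protein loads analysed by Western blot for BTK with GAPDH/β-actin as loading controls; activity binned by concentration giving 50% WT BTK degradation.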
Background: Immunoblotting shows a protein as a band on a membrane.
`Cc1cccc(C)c1Nc1nn(C)c2nc(Nc3ccc(C4CN(C[C@@H]5CCN(c6ccc7c(c6)C(=O)N(C6CCC(=O)NC6=O)C7=O)C5)C4)cc3)ncc12` (stereo partly drawn) [Compound 177, 5-((S)-3-((3-(4-((3-((2,6-Dimethylphenyl)amino)-1-methyl-1H-pyrazolo[3,4-d]pyrimidin-6-yl)amino)phenyl)azetidin-1-yl)methyl)pyrrolidin-1-yl)-2-(2,6-dioxopiperidin-3-yl)isoindoline-1,3-dione]: the DC50 fell in the range of 0.0001 to 0.01 µM.

For the compound `Cc1cccc(C)c1Nc1nn(C)c2nc(Nc3ccc4c(c3)CN(CC(O)CN3CCN(c5ccc6c(c5)C(=O)N(C5CCC(=O)NC5=O)C6=O)CC3)CC4)ncc12` (centres unmarked) [Compound 178, 5-(4-(3-(7-((3-((2,6-Dimethylphenyl)amino)-1-methyl-1H-pyrazolo[3,4-d]pyrimidin-6-yl)amino)-3,4-dihydroisoquinolin-2 (1H)-yl)-2-hydroxypropyl)piperazin-1-yl)-2-(2,6-dioxopiperidin-3-yl)isoindoline-1,3-dione], the 50% degradation concentration (DC50) lay in the range of 0.0001 to 0.01 µM.

`Cc1cccc(C)c1Nc1nn(C)c2nc(Nc3ccc(N4CCN(C[C@H]5CCN(c6ccc7c(c6)C(=O)N(C6CCC(=O)NC6=O)C7=O)C5)CC4)cc3)ncc12` (stereo partly drawn) [Compound 179, 5-((R)-3-((4-(4-((3-((2,6-Dimethylphenyl)amino)-1-methyl-1H-pyrazolo[3,4-d]pyrimidin-6-yl)amino)phenyl)piperazin-1-yl)methyl)pyrrolidin-1-yl)-2-(2,6-dioxopiperidin-3-yl)isoindoline-1,3-dione]: the DC50 lay within 0.0001 to 0.01 µM.

With `Cc1cccc(C)c1Nc1nn(C)c2nc(Nc3ccc(N4CCN(C[C@@H]5CCN(c6ccc7c(c6)C(=O)N(C6CCC(=O)NC6=O)C7=O)C5)CC4)cc3)ncc12` (stereo partly drawn) [Compound 180, 5-((S)-3-((4-(4-((3-((2,6-Dimethylphenyl)amino)-1-methyl-1H-pyrazolo[3,4-d]pyrimidin-6-yl)amino)phenyl)piperazin-1-yl)methyl)pyrrolidin-1-yl)-2-(2,6-dioxopiperidin-3-yl)isoindoline-1,3-dione], the DC50 is 0.0001 to 0.01 µM.

Regarding `Cc1cccc(C)c1Nc1nn(C)c2nc(Nc3ccc(N4CCN(CC5CN(c6ccc7c(c6)C(=O)N(C6CCC(=O)NC6=O)C7=O)C5)CC4)cc3)ncc12` (centres unmarked) [Compound 181, 5-(3-((4-(4-((3-((2,6-Dimethylphenyl)amino)-1-methyl-1H-pyrazolo[3,4-d]pyrimidin-6-yl)amino)phenyl)piperazin-1-yl)methyl)azetidin-1-yl)-2-(2,6-dioxopiperidin-3-yl)isoindoline-1,3-dione], the half-maximal degradation concentration (DC50) was 0.0001 to 0.01 µM.

Take `Cc1cccc(C)c1Nc1nn(C)c2nc(Nc3ccc(C4CN(CC5CN(c6ccc7c(c6)C(=O)N(C6CCC(=O)NC6=O)C7=O)C5)C4)cc3)ncc12` (centres unmarked) [Compound 182, 5-(3-((3-(4-((3-((2,6-Dimethylphenyl)amino)-1-methyl-1H-pyrazolo[3,4-d]pyrimidin-6-yl)amino)phenyl)azetidin-1-yl)methyl)azetidin-1-yl)-2-(2,6-dioxopiperidin-3-yl)isoindoline-1,3-dione]: the DC50 fell in the range of 0.0001 to 0.01 µM.

Turning to `Cc1cccc(C)c1Nc1nn(C)c2nc(Nc3ccc(N4CCN(CC5CN(c6ccc7c(c6)C(=O)N(C6CCC(=O)NC6=O)C7=O)C5)C[C@@H]4C)cc3)ncc12` (stereo partly drawn) [Compound 183, 5-(3-(((S)-4-(4-((3-((2,6-Dimethylphenyl)amino)-1-methyl-1H-pyrazolo[3,4-d]pyrimidin-6-yl)amino)phenyl)-3-methylpiperazin-1-yl)methyl)azetidin-1-yl)-2-(2,6-dioxopiperidin-3-yl)isoindoline-1,3-dione], the DC50 was 0.0001 to 0.01 µM.

As to `Cc1cccc(C)c1Nc1nn(C)c2nc(Nc3ccc(N4CCN(CC5CN(c6ccc7c(c6)C(=O)N(C6CCC(=O)NC6=O)C7=O)C5)C[C@H]4C)cc3)ncc12` (stereo partly drawn) [Compound 184, 5-(3-(((R)-4-(4-((3-((2,6-Dimethylphenyl)amino)-1-methyl-1H-pyrazolo[3,4-d]pyrimidin-6-yl)amino)phenyl)-3-methylpiperazin-1-yl)methyl)azetidin-1-yl)-2-(2,6-dioxopiperidin-3-yl)isoindoline-1,3-dione], the DC50 lay within 0.0001 to 0.01 µM.

On to `Cc1cccc(C)c1Nc1nn(C)c2nc(Nc3ccc(N4CCN(CC5CN(c6ccc7c(c6)C(=O)N(C6CCC(=O)NC6=O)C7=O)C5)[C@@H](C)C4)cc3)ncc12` (stereo partly drawn) [Compound 185, 5-(3-(((S)-4-(4-((3-((2,6-Dimethylphenyl)amino)-1-methyl-1H-pyrazolo[3,4-d]pyrimidin-6-yl)amino)phenyl)-2-methylpiperazin-1-yl)methyl)azetidin-1-yl)-2-(2,6-dioxopiperidin-3-yl)isoindoline-1,3-dione], for which the DC50 lay in the range of 0.0001 to 0.01 µM.

Consider `Cc1cccc(C)c1Nc1nn(C)c2nc(Nc3ccc(N4CCN(CC5CN(c6ccc7c(c6)C(=O)N(C6CCC(=O)NC6=O)C7=O)C5)[C@H](C)C4)cc3)ncc12` (stereo partly drawn) [Compound 186, 5-(3-(((R)-4-(4-((3-((2,6-Dimethylphenyl)amino)-1-methyl-1H-pyrazolo[3,4-d]pyrimidin-6-yl)amino)phenyl)-2-methylpiperazin-1-yl)methyl)azetidin-1-yl)-2-(2,6-dioxopiperidin-3-yl)isoindoline-1,3-dione], for which the half-maximal degradation concentration (DC50) was in the range of 0.0001 to 0.01 µM.

In the case of `Cc1cccc(C)c1Nc1nn(C)c2nc(Nc3ccc(N4CCN(CC5CN(c6ccc7c(n6)CN(C6CCC(=O)NC6=O)C7=O)C5)CC4)cc3)ncc12` (centres unmarked) [Compound 187, 3-(2-(3-((4-(4-((3-((2,6-Dimethylphenyl)amino)-1-methyl-1H-pyrazolo[3,4-d]pyrimidin-6-yl)amino)phenyl)piperazin-1-yl)methyl)azetidin-1-yl)-5-oxo-5,7-dihydro-6H-pyrrolo[3,4-b]pyridin-6-yl)piperidin-2,6-one], the half-maximal degradation concentration (DC50) lay in the range of 0.0001 to 0.01 µM.

Take `Cc1cccc(C)c1Nc1nn(C)c2nc(Nc3ccc(N4CCN(CC5CCN(c6ccc7c(n6)C(=O)N(C6CCC(=O)NC6=O)C7=O)CC5)CC4)cc3)ncc12` (centres unmarked) [Compound 188, 3-(2-(4-((4-(4-((3-((2,6-Dimethylphenyl)amino)-1-methyl-1H-pyrazolo[3,4-d]pyrimidin-6-yl)amino)phenyl)piperazin-1-yl)methyl)piperidin-1-yl)-5-oxo-5,7-dihydro-6H-pyrrolo[3,4-b]pyridin-6-yl)piperidin-2,6-one]: the DC50 lay in the range of 0.0001 to 0.01 µM.

Regarding `Cc1cccc(C)c1Nc1nn(C)c2nc(Nc3ccc4c(c3)CN(C(=O)Cc3cccc(NC5=CC(=O)N(C6CCC(=O)NC6=O)C5=O)c3)CC4)ncc12` (centres unmarked) [Compound 192, 3-(3-((3-(2-(7-((3-((2,6-Dimethylphenyl)amino)-1-methyl-1H-pyrazolo[3,4-d]pyrimidin-6-yl)amino)-3,4-dihydroisoquinolin-2 (1H)-yl)-2-oxoethyl)phenyl)amino)-2,5-dioxo-2,5-dihydro-1H-pyrrol-1-yl)piperidin-2,6-one], the half-maximal degradation concentration (DC50) lay within 0.01 to 1 µM.

For `Cc1cccc(C)c1Nc1nn(C)c2nc(Nc3ccc4c(c3)CN(CC3CCN(C(=O)Cc5cccc(NC6=CC(=O)N(C7CCC(=O)NC7=O)C6=O)c5)CC3)CC4)ncc12` (centres unmarked) [Compound 193, 3-(3-((3-(2-(4-((7-((3-((2,6-Dimethylphenyl)amino)-1-methyl-1H-pyrazolo[3,4-d]pyrimidin-6-yl)amino)-3,4-dihydroisoquinolin-2 (1H)-yl)methyl)piperidin-1-yl)-2-oxoethyl)phenyl)amino)-2,5-dioxo-2,5-dihydro-1H-pyrrol-1-yl)piperidin-2,6-one], the 50% degradation concentration (DC50) was in the range of 0.0001 to 0.01 µM.
